Source: patent US6806293B1, “Use of pheromone compounds having MAP kinase modulating activity” (Darley Pharmaceuticals LTD, priority 2001, dated 2004)

Legend:
MAP kinase [1] = test: Screening method for pheromone compounds having MAP kinase modulating activity in Rat1 cells (Example 1); format: cell-based, rat; settings: observed on screening in accordance with the described methods
Method: In a preferred screening method, as set forth in Example 1 herein, pheromone compounds with MAP kinase modulating activity are identified using Rat1 cells grown in cell culture dishes. Samples of the pheromone compound are added to respective cell culture dishes containing the Rat1 cells and incubated. A control group is established by treating a separate group of cell culture dishes containing Rat1 cells with the same solutions absent the pheromone compound. After incubation, the Rat1 cells are stimulated with epidermal growth factor to stimulate MAP kinase activation in the Rat1 cells. Upon completion of the incubation period, the Rat1 cells in each of the culture dishes are separately processed to obtain the corresponding cell extract containing proteins indicative of active kinase. The proteins are then separated using known electrophoresis techniques and prepared as a blot for the detection and measurement of active MAP kinase. The resulting blot is analyzed using densitometric techniques to measure the corresponding activity of the tested pheromone compound.
Rat1 cells were grown in 6 cm cell culture dishes in a tissue culture incubator at 37° C. in an atmosphere containing 5% carbon dioxide. The cells were serum-starved for 16 hours. […] A control group was established by adding to the remaining cell culture dishes the same solution absent the pheromone compound. After the 15 minute period, the Rat1 cells were stimulated with epidermal growth factor (EGF) (50 ng/ml) for about 15 minutes for one group and 30 minutes for a second group.
The Rat1 cells were then treated to remove the corresponding incubation medium and then the cells were rinsed twice each with 5 ml of cold phosphate buffered saline (PBS) and once with 5 ml of cold homogenizing buffer (Buffer H) containing 50 mM of β-glycerophosphate, (pH 7.3), 1.5 mM of ethylenebis(oxyethylenenitrilo)tetraacetic acid (EGTA), 1 mM of ethylenediaminetetraacetic acid (EDTA), 1 mM of dithiothreitol (DTT), 0.1 mM sodium orthovanadate, 1 mM benzamidine, 10 μg/ml of aprotinin, 10 μg/ml of leupeptin, and 2 μg/ml of pepstatin (2 μg/ml)+1% Triton-X-100.
The cells were harvested and lysed with 350 μl of cold Buffer H. Alternatively, the cells may be harvested and lysed with radioimmunoprotein assay buffer (RIPA buffer). Each extract was then centrifuged at 15,000×g for 15 minutes at 4° C. The resulting supernatants contained the protein extracts to be examined and were transferred to fresh, pre-cooled test tubes and kept on ice.
The proteins were then separated by sodium dodecyl sulfate-polyacrylamide gel electrophoresis (SDS-PAGE) and transferred, by western blotting, onto a nitrocellulose membrane.
The blot produced above was blocked with 2% bovine serum albumin (BSA) in Tris-buffered saline/Tween-20 (TBST) for 1 hour. The blot was then incubated with a monoclonal anti-active MAP kinase antibody obtained from Sigma, and diluted according to the manufacturer recommendations. The blot was incubated overnight at 4° C. Alternatively, the blot may also be incubated for about 30 minutes at 37° C., or from one to two hours at room temperature.
The treated blot was placed in a flat container and washed at least 3 times for 15 minutes each with TBST buffer at room temperature. The blot was then incubated with alkaline phosphatase-conjugated goat anti-mouse IgG obtained from Jackson Laboratories, diluted according to the manufacturer recommendations in TBST buffer for 45 minutes at room temperature. The blot was then subjected to a second washing, repeated 3 times, for 10 minutes each with TBST. An alkaline phosphatase (AP) detection technique was utilized to detect and measure the presence of active MAP kinase. Enhanced MAP kinase activity as compared to control is evidence that the compound is a MAP kinase activator. Lowered MAP kinase activity as compared to control is evidence that the compound is a MAP kinase inhibitor. […]

MAP kinase [2] = test: Inhibition of EGF-stimulated MAP kinase activity in Rat1 cells (Example 2, western blot with anti-active-MAPK antibodies, densitometry); format: cell-based, rat; settings: compound 10^-4 M preincubated about 30 min; for Inhibition of MAP Kinase activity (% of Control), 15 minute activation by EGF: EGF 25 ng/ml for 15 minutes
Method: Rat1 cells grown in a series of cell culture dishes were prepared in the same manner described above in Example 1. The cells were serum-starved for 16 hours. Three groups of cell culture dishes containing Rat1 cells were each preincubated for about 30 minutes with solution containing the pheromone compound, trans-3, cis-7-tetradecadienyl-acetate at a concentration of 10^−4 M, with a solution containing the pheromone compound, trans-3, cis-8-tetradecadienyl-acetate at a concentration of 10^−4 M, or a control solution absent any pheromone compound. After preincubation, all of the Rat1 cells were stimulated with epidermal growth factor (EGF) (25 ng/ml) for about 15 minutes for one group and 30 minutes for a second group. The Rat1 cells were then washed with phosphate buffered saline (PBS) and lysed with RIPA buffer. The proteins were then separated by sodium dodecyl sulfate-polyacrylamide gel electrophoresis (SDS-PAGE) and probed with anti-active-MAPK antibodies. The inhibitory effect of the pheromone compound on MAPK activity was calculated as the percent EGF-induced activity as indicated by densitometry analysis as compared to the control receiving no pheromone compound.

Compound | mitogen-activating protein kinase modulation activity (activator or inhibitor) (MAP kinase [1]) | Inhibition of MAP Kinase activity (% of Control), 15 minute activation by EGF (MAP kinase [2]) [%] | Inhibition of MAP Kinase activity (% of Control), 30 minute activation by EGF (MAP kinase [2]; EGF 25 ng/ml for 30 minutes) [%]
CCCCCC/C=C\CC/C=C/CCOC(C)=O [Trans-3,Cis-7-Tetradecadienyl-acetate] | inhibitors | 75 | 85
CCCCC/C=C\CCC/C=C/CCOC(C)=O [Trans-3,Cis-8-Tetradecadienyl-acetate] | inhibitors | 50 | 
